Paper PMC7278776, “Multidrug Resistance Modulation Activity of Silybin Derivatives and Their Anti-Inflammatory Potential” (Antioxidants, 2020)
Like-named read-outs stand apart in the source and are kept apart here.

What was measured:
ABCG2 (BCRP) = assay: ABCG2 mRNA expression (real-time PCR); format: cell-based, human
Procedure: (§1) The A2780/DOX cell line was seeded into 5 cm Petri dishes with DMEM medium at 1 × 10^5 cell/mL. […] After 48 h of treatment, the cells were washed with PBS and harvested using the standard trypsin-EDTA procedure. The harvested cells were centrifuged (3200× g; 10 min, 4 °C). The supernatant was discarded, and the pellets were washed with 1.5 mL of cooled PBS (5400× g; 10 min, 4 °C). The washing step was repeated with 1 mL of PBS and the cells were centrifuged again (10,000× g; 3 min, 4 °C). Afterwards, the pellets were resuspended in 1 mL of Trizol (Invitrogen, Carlsbad, CA, USA) and transferred into pre-cooled RNase-free microfuge tubes. The samples were stored at −80 °C.
(§2) A Quant-iT RiboGreen RNA Assay Kit (Invitrogen) was used to determine the RNA concentration using the Infinite M200 plate reader (Tecan, Männedor, Switzerland). The cDNA was prepared from 0.5 µg of total RNA using a RevertAid First Strand Synthesis cDNA Kit (MBI Fermentas, Vilnius, Lithuania). The amplification of the ubiquitin C gene fragment was used to determine the quality of cDNA.
(§3) The experiment was performed using the ViiA7 Real-Time polymerase chain reaction (PCR) System (Life Technologies, Camarillo, CA, USA) with a 384-well block. Before quantitative real-time PCR, the master mix was prepared by mixing 2 µL of 8 × diluted cDNA, 1.75 µL of RNase free water, 1 µL of 5 × HotFIREPol Probe quantitative PCR Mix Plus (Solis Biodyne, Tartu, Estonia) and 0.25 µL of specific 20 × TaqMan Gene Expression Assay (Life Technologies), giving 5 µL of final reaction volume. Cycling parameters were: initial hold at 50 °C for 2 min and denaturation at 95 °C for 10 min, followed by 45 cycles consisting of denaturation at 95 °C for 15 s and annealing/extension at 60 °C for 1 min. After each extension phase, the fluorescence values were acquired. Duplicate samples were used for measurement and samples with a standard deviation of duplicates > 1.0 cycle threshold (Ct) were re-analyzed. The real time PCR procedure was maintained according to MIQE (Minimum information for publication of quantitative real-time PCR experiments) guidelines. The software REST 2009 (Qiagen, Hilden, Germany) served to compare relative transcript levels of genes in the cell line.

A2780/DOX [1] = assay: Sensitization of the MDR cell line to doxorubicin; format: cell-based, human
HepG2 cells = assay: CAA (cellular antioxidant activity) assay; format: cell-based; settings: Homo sapiens
Procedure: For the CAA assay, human hepatocellular carcinoma HepG2 cells (ATCC, Manassas, VA, USA) were seeded into a 96-well microplate at a density of 1 × 10^5 cells/well in EMEM medium supplemented with 10% of FBS, 2 mM L-glutamine and 1 × antibiotic antimycotic solution. The cells were maintained in a CO2 incubator (5% CO2, 37 °C, Memmert GmbH & Co, Büchenbach, Germany). The following day, the plates were washed with PBS and new fresh DMEM was added into each well supplemented with tested samples in the concentration range of 6.25–100 µM and fluorescent probe DCFH-DA (12.5 mg/L). After 1 h of incubation at 37 °C, the medium was replaced with AAPH solution (0.16 mg/mL in PBS), except for the negative control, where PBS was added instead. Directly, the fluorescence was recorded for 2 h in 5 min steps at 485/540 nm excitation/emission (ex./em.).

A2780/DOX [2] = assay: Viability of A2780/DOX cells (resazurin); settings: Homo sapiens, A2780, read-out: IC50 (µM), concentration necessary to halve cell viability
Procedure: To determine the NO production, the medium was mixed with Griess reagent (0.04 g/mL, prepared in deionized water) in a 1:1 ratio. After 15 min, absorbance was recorded at 540 nm. To determine cell viability, the resazurin solution (0.03 mg/mL in PBS) was added to the cells. After 2 h of incubation, fluorescence was recorded (560/590 nm, ex./em.).
A multidrug resistant ovarian sub-line resistant to doxorubicin (A2780/DOX, Sigma-Aldrich) was cultivated in DMEM medium with 10% FBS and 1 × antibiotic antimycotic solution. Every other passage, doxorubicin at the final concentration of 0.1 µM was added to the culture medium to maintain the resistance of the cell line. To perform experiments, the cells were seeded at 1 × 10^5 cell/mL into the wells of a 96-well plate and incubated for 24 h. Afterwards, the cells were washed with PBS and fresh DMEM medium with tested compounds at 10, 20 and 30 µM were added to each well, except for the control wells. Subsequently, the cells were exposed to increasing concentrations of doxorubicin (0.6–20 µM) for 72 h. After incubation, the resazurin assay was performed as described above. The IC50 of doxorubicin was calculated for both the control and the samples and the fold change was counted up. […] The fold change lower than 1 means an antagonistic effect. (1) FOLD CHANGE=IC50 value of DOX cells treated with chemotherapeutic /IC50 value of DOX cells treated with chemotherapeutic and compound

ABCG4 = ABCG4 mRNA expression (real-time PCR); format: cell-based, human; settings: for ABCG4 Expression Difference / ABCG4 Treated vs. Untreated: A2780/DOX
Procedure: as §1, §2, §3

ABCD1 = ABCD1 mRNA expression (real-time PCR); format: cell-based, human; settings: A2780/DOX
Procedure: The A2780/DOX cell line was seeded into 5 cm Petri dishes with DMEM medium at 1 × 10^5 cell/mL. After 24 h, the dishes were washed with PBS and new DMEM medium supplemented with doxorubicin (at concentration equal to IC25) and samples (10 µM) were added. After 48 h of treatment, the cells were washed with PBS and harvested using the standard trypsin-EDTA procedure. The harvested cells were centrifuged (3200× g; 10 min, 4 °C). The supernatant was discarded, and the pellets were washed with 1.5 mL of cooled PBS (5400× g; 10 min, 4 °C). The washing step was repeated with 1 mL of PBS and the cells were centrifuged again (10,000× g; 3 min, 4 °C). Afterwards, the pellets were resuspended in 1 mL of Trizol (Invitrogen, Carlsbad, CA, USA) and transferred into pre-cooled RNase-free microfuge tubes. The samples were stored at −80 °C.
as §2, §3

ABCF3 = ABCF3 mRNA expression (real-time PCR); format: cell-based, human; settings: A2780/DOX
Procedure: as §1, §2, §3

[3] = A2780/DOX, 10 µM combined with doxorubicin at IC25, 48 h
[4] = HepG2, read-out: CAA, concentration necessary to halve the fluorescence response (IC50)
[5] = 10 µM, 48 h, without doxorubicin
[6] = 10 µM combined with doxorubicin at IC25, 48 h
[7] = A2780/DOX, 10 µM, 48 h, without doxorubicin
[8] = HepG2, DCFH-DA/AAPH, read-out: CAA, concentration necessary to halve the fluorescence response (IC50)

SMILES | ABCG2 Expression Difference (ABCG2 (BCRP); [3]) | Doxorubicin-sensitization rate (ratio of IC50 of doxorubicin and doxorubicin + tested compound) (A2780/DOX [1]; compound 10 µM) | Doxorubicin-sensitization rate (ratio of IC50 of doxorubicin and doxorubicin + tested compound) (A2780/DOX [1]; compound 20 µM) | Doxorubicin-sensitization rate (ratio of IC50 of doxorubicin and doxorubicin + tested compound) (A2780/DOX [1]; compound 30 µM) | IC50 (HepG2 cells; [4]) | IC50 (A2780/DOX [2]) | downregulation of ABCG4 expression (ABCG4; [5]) | ABCG4 Expression Difference (ABCG4; [6]) | ABCG4 Expression Difference (ABCG4; [5]) | ABCG4 Treated vs. Untreated (ABCG4; [5]) | ABCD1 Expression Difference (ABCD1; [6]) | ABCD1 Expression Difference (ABCD1; [5]) | ABCF3 Expression Difference (ABCF3; [6]) | ABCF3 Expression Difference (ABCF3; [5]) | ABCG2 Expression Difference (ABCG2 (BCRP); [7]) | Doxorubicin-sensitization rate (ratio of IC50 of doxorubicin and doxorubicin + tested compound) (A2780/DOX [1]; compound 50 µM) | IC50 (HepG2 cells; [8]) | also measured
COc1cc([C@H]2Oc3cc(-c4oc5cc(O)cc(O)c5c(=O)c4O)ccc3O[C@@H]2CO)ccc1O [Dehydrosilybin A, 2,3-dehydrosilybin A] | 1.259 | (2.1 ± 0.3) × | (2.5 ± 0.2) × | (9.5 ± 0.7) × | 11.8 ± 0.7 µM | 74.4 ± 4.8 µM | 5% | 1.992 | 0.950 | DOWN | 1.435 | 1.063 | 1.096 | 1.602 | – | – | – | Doxorubicin-sensitization rate (ratio of IC50 of doxorubicin and doxorubicin + tested compound) (A2780/DOX [1]; compound 30 µM, listed as dehydrosilybin A): ~10 ×
COc1cc(C2Oc3cc(-c4oc5cc(O)cc(O)c5c(=O)c4O)ccc3OC2CO)ccc1O (centres unmarked) [Dehydrosilybin AB, 2,3-dehydrosilybin] | 1.698 | (2.4 ± 0.2) × | – | – | 9.2 ± 0.5 µM | 33.6 ± 0.4 µM | – | 2.008 | 1.162 | – | 1.412 | – | 1.326 | 1.706 | 1.921 | – | – | –
COc1cc([C@@H]2Oc3cc(-c4oc5cc(O)cc(O)c5c(=O)c4O)ccc3O[C@H]2CO)ccc1O [Dehydrosilybin B, 2,3-dehydrosilybin B] | 1.948 | (2.0 ± 0.1) × | – | – | 12.1 ± 0.4 µM | 27.1 ± 0.4 µM | 26% | 2.860 | 0.736 | DOWN | 1.784 | – | 1.963 | – | – | – | – | –
COc1cc([C@H]2Oc3cc([C@H]4Oc5cc(O)cc(O)c5C(=O)[C@@H]4O)ccc3O[C@@H]2CO)ccc1O [Silybin A, silybin A] | 2.415 | (1.3 ± 0.1) × | (1.6 ± 0.2) × | (1.9 ± 0.1) × | – | 252 ± 7.6 µM | – | 4.751 | 1.185 | – | – | 1.187 | 1.570 | – | – | (3.6 ± 0.3) × | 9.8 ± 0.4 µM | –
COc1cc(C2Oc3cc([C@H]4Oc5cc(O)cc(O)c5C(=O)[C@@H]4O)ccc3OC2CO)ccc1O (some centres unmarked) [Silybin AB, silybin] | 2.373 | (1.4 ± 0.1) × | (1.6 ± 0.1) × | (1.7 ± 0.1) × | – | 197 ± 4 µM | – | 5.289 | 1.846 | – | 2.868 | – | 1.554 | 1.440 | – | (7.7 ± 0.4) × | 10.7 ± 0.9 µM | Doxorubicin-sensitization rate (ratio of IC50 of doxorubicin and doxorubicin + tested compound) (A2780/DOX [1]; compound 50 µM, listed as silybin AB): ~10 ×
COc1cc([C@@H]2Oc3cc([C@H]4Oc5cc(O)cc(O)c5C(=O)[C@@H]4O)ccc3O[C@H]2CO)ccc1O [Silybin B, silybin B] | 1.902 | (1.4 ± 0.1) × | (1.5 ± 0.2) × | (1.8 ± 0.1) × | – | 194 ± 8.8 µM | – | 4.110 | 0.366 | DOWN | – | 0.348 | 1.335 | 0.328 | 0.335 | (3.3 ± 0.4) × | 8.9 ± 0.3 µM | downregulation of ABCG2 (BCRP) expression (ABCG2 (BCRP); [5]): 67%; ABCG2 Treated vs. Untreated (ABCG2 (BCRP); [7]): DOWN; ABCD1 Treated vs. Untreated (ABCD1; [5]): DOWN; ABCF3 Treated vs. Untreated (ABCF3; [5]): DOWN
